Source: PubChem BioAssay (NCI)
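Five compound concentrations were applied to cells in 96-well plates for 48 hours; endpoints were derived by simple linear interpolation of the resulting dose-response curve. At the TGI there is no net growth.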 Where a SMILES comes first, the peptide text is derived from it. [ ]: non-standard residue; d: D form. The star is where a group is joined. Cbz = O=C(OCc1ccccc1)*; Aib = CC(C)(N)C(=O)O

Columns and labels:
Test in all cases: growth of human tumour cells (NCI), 48 h
NCI-H23 lung = system: NCI-H23 lung
CCRF-CEM leukemia = system: CCRF-CEM leukemia
RPMI-8226 leukemia = system: RPMI-8226 leukemia
T-47D breast = system: T-47D breast
TK-10 renal = system: TK-10 renal
SF-295 CNS = system: SF-295 CNS
NCI-H226 lung = system: NCI-H226 lung
IGROV1 ovarian = system: IGROV1 ovarian
SK-MEL-5 melanoma = system: SK-MEL-5 melanoma
SN12C renal = system: SN12C renal
COLO 205 colon = system: COLO 205 colon
HCT-116 colon = system: HCT-116 colon
SNB-19 CNS = system: SNB-19 CNS
UACC-257 melanoma = system: UACC-257 melanoma
M14 melanoma = system: M14 melanoma
U251 CNS = system: U251 CNS
MALME-3M melanoma = system: MALME-3M melanoma
OVCAR-8 ovarian = system: OVCAR-8 ovarian
786-0 renal = system: 786-0 renal
SF-539 CNS = system: SF-539 CNS
A498 renal = system: A498 renal
K-562 leukemia = system: K-562 leukemia
KM12 colon = system: KM12 colon
SNB-75 CNS = system: SNB-75 CNS
SK-MEL-28 melanoma = system: SK-MEL-28 melanoma
MCF7 breast = system: MCF7 breast
UACC-62 melanoma = system: UACC-62 melanoma
BT-549 breast = system: BT-549 breast
MOLT-4 leukemia = system: MOLT-4 leukemia
NCI/ADR-RES ovarian = system: NCI/ADR-RES ovarian
NCI-H460 lung = system: NCI-H460 lung
A549 NSCLC = system: A549 NSCLC
SK-MEL-2 melanoma = system: SK-MEL-2 melanoma
HCT-15 colon = system: HCT-15 colon
HOP-62 NSCLC = system: HOP-62 NSCLC
ACHN renal = system: ACHN renal
LOX IMVI melanoma = system: LOX IMVI melanoma
OVCAR-3 ovarian = system: OVCAR-3 ovarian
EKVX NSCLC = system: EKVX NSCLC
SR leukemia = system: SR leukemia
SW-620 colon = system: SW-620 colon
CAKI-1 renal = system: CAKI-1 renal
UO-31 renal = system: UO-31 renal
MDA-N = system: MDA-N
MDA-MB-231 breast = system: MDA-MB-231 breast
NCI-H522 lung = system: NCI-H522 lung
MDA-MB-435 = system: MDA-MB-435
DU-145 prostate = system: DU-145 prostate
OVCAR-5 ovarian = system: OVCAR-5 ovarian
OVCAR-4 ovarian = system: OVCAR-4 ovarian
HCC-2998 colon = system: HCC-2998 colon
HOP-92 NSCLC = system: HOP-92 NSCLC
SK-OV-3 ovarian = system: SK-OV-3 ovarian
HT29 colon = system: HT29 colon
PC-3 prostate = system: PC-3 prostate
SF-268 CNS = system: SF-268 CNS
HS 578T breast = system: HS 578T breast

Measured: TGI

Cn1c2ccccc2c2c3c(c4c5ccccc5n(C)c4c21)C(=O)N(c1ccccc1)C3=O
> 100 µM: NCI-H23 lung | CCRF-CEM leukemia | RPMI-8226 leukemia | T-47D breast | TK-10 renal | SF-295 CNS | NCI-H226 lung | IGROV1 ovarian | SK-MEL-5 melanoma | SN12C renal | COLO 205 colon | HCT-116 colon | SNB-19 CNS | UACC-257 melanoma | M14 melanoma | U251 CNS | MALME-3M melanoma | OVCAR-8 ovarian | 786-0 renal | SF-539 CNS | A498 renal | K-562 leukemia | KM12 colon | SNB-75 CNS | SK-MEL-28 melanoma | MCF7 breast | UACC-62 melanoma | BT-549 breast | MOLT-4 leukemia | NCI/ADR-RES ovarian | NCI-H460 lung | A549 NSCLC | SK-MEL-2 melanoma | HCT-15 colon | HOP-62 NSCLC | ACHN renal | LOX IMVI melanoma | OVCAR-3 ovarian | EKVX NSCLC | SR leukemia | SW-620 colon | CAKI-1 renal | UO-31 renal | MDA-N | MDA-MB-231 breast | NCI-H522 lung | MDA-MB-435 | DU-145 prostate | OVCAR-5 ovarian | OVCAR-4 ovarian | HCC-2998 colon | HOP-92 NSCLC | SK-OV-3 ovarian | HT29 colon | PC-3 prostate

CC(C)(NC(=O)C(C)(C)NC(=O)OCc1ccccc1)C(=O)O (Cbz-[Aib]-[Aib]-OH)
> 100 µM: NCI-H23 lung | CCRF-CEM leukemia | RPMI-8226 leukemia | T-47D breast | TK-10 renal | SF-295 CNS | NCI-H226 lung | IGROV1 ovarian | SK-MEL-5 melanoma | SN12C renal | HCT-116 colon | SNB-19 CNS | UACC-257 melanoma | M14 melanoma | SF-268 CNS | U251 CNS | MALME-3M melanoma | OVCAR-8 ovarian | 786-0 renal | SF-539 CNS | A498 renal | K-562 leukemia | KM12 colon | SNB-75 CNS | SK-MEL-28 melanoma | MCF7 breast | UACC-62 melanoma | MOLT-4 leukemia | NCI/ADR-RES ovarian | NCI-H460 lung | A549 NSCLC | HS 578T breast | SK-MEL-2 melanoma | HCT-15 colon | HOP-62 NSCLC | ACHN renal | LOX IMVI melanoma | OVCAR-3 ovarian | EKVX NSCLC | SR leukemia | SW-620 colon | CAKI-1 renal | UO-31 renal | MDA-N | MDA-MB-231 breast | NCI-H522 lung | MDA-MB-435 | DU-145 prostate | OVCAR-5 ovarian | OVCAR-4 ovarian | HCC-2998 colon | HOP-92 NSCLC | SK-OV-3 ovarian | HT29 colon | PC-3 prostate
